The values below come from article PMC4535380, “Overproduction of pro-transglutaminase from Streptomyces hygroscopicus in Yarrowia lipolytica and its biochemical characterization” (BMC Biotechnology, 2015).

Format in all cases: biochemical, Streptomyces hygroscopicus
Data set [1] concerns T1, activated pro-TGase.
T1 construct: pro-TGase behind XPR2 pre signal, secreted by Yarrowia lipolytica Po1h (pINA1297), N-glycosylated; no tag mentioned
The data set is described as follows: colorimetric hydroxamate assay at […] nm, Lineweaver-Burk. Conditions: hydroxylamine co-substrate (assay b48), 50 mmol/L Tris-HCl pH 6.0; substrate 6-30 mmol/L (below Km); dispase-activated; read-out: N160Q.

In data set [2] the test system is T1, activated pro-TGase. The data set is described as above. Conditions: hydroxylamine co-substrate (assay b48), 50 mmol/L Tris-HCl pH 6.0; substrate 6-30 mmol/L (below Km); dispase-activated; read-out: N160Q/N355Q.
In data set [3] the test system is T1, activated pro-TGase. The description is as above. Conditions: hydroxylamine co-substrate (assay b48), 50 mmol/L Tris-HCl pH 6.0; substrate 6-30 mmol/L (below Km); dispase-activated; read-out: N355Q.
In data set [4] the test system is T2, NC(=O)CC[C@H](NC(=O)OCc1ccccc1)C(=O)NCC(=O)O.
T2 construct: pro-TGase behind XPR2 pre signal, secreted by Yarrowia lipolytica Po1h (pINA1297), N-glycosylated; no tag mentioned
The data set is described as follows: purified protein. Conditions: hydroxylamine co-substrate (assay b48), 50 mmol/L Tris-HCl pH 6.0, substrate 6-30 mmol/L (below Km), dispase-activated, 37.0 °C.

Where two headings read alike, the source gives them in different places. Peptide text beside a SMILES is read from it. * marks the point of attachment. Cbz = O=C(OCc1ccccc1)*

On to `NC(=O)CC[C@H](NC(=O)OCc1ccccc1)C(=O)NCC(=O)O` [N-CBZ-Gln-Gly] (Cbz-Gln-Gly-OH), for which the Km was found to be 47 ± 1.5 mM in data set [1], 48.4 ± 2.4 mM in data set [2] and 54.7 ± 2.1 mM in data set [3].

“activated pro-TGase (wild type) (Streptomyces hygroscopicus)”: in data set [4], the Km came out at 59.5 ± 2.3 mM; the kcat (as a rule, the number of substrate molecules converted per active site and unit of time at saturation) is 31.5 ± 1.7 s⁻¹.
